From PMC7558026, “Exploring and applying the substrate promiscuity of a C-glycosyltransferase in the chemo-enzymatic synthesis of bioactive C-glycosides” (Nature Communications, 2020)
Changes are numbered by the printed parent chain. Values joined by “and” are separate entries in the source; they are usually repeats but may differ in a detail not shown here. Equal entries are not always repeated.

Key:
[1] = target: AbCGT (Aloe vera, UniProt A0A7G9P699); assay: Glycosyltransferase activity assay, purified AbCGT (wild type) with aglycon acceptors and UDP-Glc; format: biochemical, Aloe barbadensis; details: for conversion rates, Purified Enzyme: fig. 2b, purified AbCGT, redesigned substrates; for conversion rates, Purified Enzyme / conversion rates, O,N,S-glycosylation / conversion rates, di-C-glycosylation / conversion rates, mono-C-glycosylation: Reaction-1 to -3; for conversion rates, O,N,S-glycosylation / conversion rates, di-C-glycosylation / conversion rates, mono-C-glycosylation: aglycon acceptor with UDP-Glc, pH 7.4, 30 °C, up to 12 h
Protocol: Due to the instability of some acceptors in the buffer of pH 11.0, the reactions were performed under the physiological conditions (pH 7.4, 30 °C) to compare the catalytic activities of AbGT27 with different substrates under the same conditions. The reactions were performed at 30 °C for up to 12 h and terminated by the addition of 200 μL of ice-cold methanol. Subsequently, samples were centrifuged at 15,000 × g for 30 min to collect the supernatant, and aliquots were analyzed by HPLC-UV/ESIMS. […] The gradient programs were used for the analysis of the reactions (Supplementary Table 6). The conversion rates of the enzyme reactions were calculated from peak areas of glycosylated products and substrates as analyzed by HPLC. To facilitate inferential statistical analysis, three parallel assays were routinely performed; the means ± SD from triplicate analyses are reported here.

[2] = system: E. coli-AbCGT; assay: Glycosylation by whole-cell biocatalyst E. coli-AbCGT; format: cell-based; details: fig. 2c, 30 °C, M9 medium, 12 h, 0.25 mM acceptor; Reaction-1 to -3
Protocol: The induced cells of E. coli-AbCGT were harvested by centrifugation at 3000 × g for 5 min at 4 °C and washed with ddH2O. Pellets were resuspended by M9 minimal medium containing 2% glucose to appropriate cell density (OD600 = 3.0). Prepared whole-cell biocatalyst of E. coli-AbCGT (500 μL) was then added to 2-mL tubes containing various acceptors at a concentration of 0.25 mM. The mixture was incubated at 30 °C for 12 h with shaking (200 rpm). The reactions were analyzed using GT activity assays as described above. For quantification, three parallel assays were routinely carried out.

[3] = target: T1, SGLT2 (Homo sapiens, UniProt P31639); assay: 1-NBDG uptake in HEK293 cells stably expressing SGLT2; format: cell-based; details: HEK293, compound at 10 μM; triplicate; read-out: SGLT2 inhibitory rates
T1 construct: Human full-length SGLT2 cDNA (NM_003041.3) was synthesized; expressed in transfected cells; host or cells: HEK293, retroviral transduction with pMSCVpuro-SGLT2, puromycin selected
T1 sequence (P31639 1-672): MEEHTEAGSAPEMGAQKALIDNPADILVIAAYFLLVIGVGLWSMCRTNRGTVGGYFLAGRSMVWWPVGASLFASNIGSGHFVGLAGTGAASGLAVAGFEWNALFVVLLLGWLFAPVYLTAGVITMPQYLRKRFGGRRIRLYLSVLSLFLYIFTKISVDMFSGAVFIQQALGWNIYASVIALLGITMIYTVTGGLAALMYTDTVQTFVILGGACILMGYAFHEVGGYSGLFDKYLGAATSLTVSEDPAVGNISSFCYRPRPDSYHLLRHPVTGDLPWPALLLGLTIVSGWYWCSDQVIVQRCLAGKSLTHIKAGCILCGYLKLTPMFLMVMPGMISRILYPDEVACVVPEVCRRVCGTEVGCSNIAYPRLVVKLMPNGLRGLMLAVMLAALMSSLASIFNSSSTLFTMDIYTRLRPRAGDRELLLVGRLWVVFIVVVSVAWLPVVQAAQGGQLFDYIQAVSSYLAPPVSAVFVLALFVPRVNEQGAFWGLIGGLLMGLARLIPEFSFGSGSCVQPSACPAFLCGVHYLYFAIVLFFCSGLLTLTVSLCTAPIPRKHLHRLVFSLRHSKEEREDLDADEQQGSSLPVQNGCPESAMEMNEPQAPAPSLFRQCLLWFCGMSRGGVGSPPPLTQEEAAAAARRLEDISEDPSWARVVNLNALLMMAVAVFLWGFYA

[4] = target: T2, AbCGT V183D (Aloe vera, UniProt A0A7G9P699, V183D); assay: Glycosyltransferase activity of AbCGT variant V183D; format: biochemical, Aloe barbadensis
T2 sequence (A0A7G9P699 1-470 V183D): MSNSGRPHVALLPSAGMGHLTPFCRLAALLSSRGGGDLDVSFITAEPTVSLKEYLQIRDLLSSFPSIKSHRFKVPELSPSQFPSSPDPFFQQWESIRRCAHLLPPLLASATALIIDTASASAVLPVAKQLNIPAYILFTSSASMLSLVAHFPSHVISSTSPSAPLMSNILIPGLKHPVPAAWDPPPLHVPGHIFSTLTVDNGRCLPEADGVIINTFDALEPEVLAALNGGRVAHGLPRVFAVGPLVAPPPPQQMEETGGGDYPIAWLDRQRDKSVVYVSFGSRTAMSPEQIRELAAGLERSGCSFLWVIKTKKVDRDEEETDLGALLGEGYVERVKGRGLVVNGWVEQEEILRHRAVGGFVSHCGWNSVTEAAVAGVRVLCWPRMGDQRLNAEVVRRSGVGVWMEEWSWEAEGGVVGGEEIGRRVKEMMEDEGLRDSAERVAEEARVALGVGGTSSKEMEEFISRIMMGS
Protocol: (§1) The reaction mixture contained 0.5 mM sugar donors (1.0 mM for di-glycosylation), 0.25 mM aglycons, 50 mM Tris-HCl (pH 7.4), and 50‒100 μg of purified AbCGT in a final volume of 100 μL. Due to the instability of some acceptors in the buffer of pH 11.0, the reactions were performed under the physiological conditions (pH 7.4, 30 °C) to compare the catalytic activities of AbGT27 with different substrates under the same conditions. The reactions were performed at 30 °C for up to 12 h and terminated by the addition of 200 μL of ice-cold methanol. Subsequently, samples were centrifuged at 15,000 × g for 30 min to collect the supernatant, and aliquots were analyzed by HPLC-UV/ESIMS. HPLC analysis was performed on a Shiseido CAPCELL PAK C18 MG III column (250 mm × 4.6 mm I.D., 5 μm, Shiseido Co., Ltd., Japan) at a flow rate of 1 mL min^‒1. The mobile phase was a gradient elution of solvents A (0.1% formic acid aqueous solution) and B (methanol). The gradient programs were used for the analysis of the reactions (Supplementary Table 6). The conversion rates of the enzyme reactions were calculated from peak areas of glycosylated products and substrates as analyzed by HPLC. To facilitate inferential statistical analysis, three parallel assays were routinely performed; the means ± SD from triplicate analyses are reported here.
(§2) Site-saturation mutagenesis of AbCGT at residue 183 was performed by PCR using pET28a-AbCGT as a template and the corresponding degenerate primers, which are listed in Supplementary Table 5. PCR products were purified and transformed into Trans1-T1 (DE3) E. coli. The sequences of pET28a-AbCGT mutants were confirmed by sequencing, and transformed into Transetta (DE3) E. coli for heterologous expression following protein purification.

[5] = target: T3, AbCGT V183E (Aloe vera, UniProt A0A7G9P699, V183E); assay: Glycosyltransferase activity of AbCGT variant V183E; format: biochemical, Aloe barbadensis
T3 sequence (A0A7G9P699 1-470 V183E): T2 sequence (A0A7G9P699 1-470 V183D) with D183E
Protocol: as §1, §2

Chain of AbCGT (A0A7G9P699 entry or part of it): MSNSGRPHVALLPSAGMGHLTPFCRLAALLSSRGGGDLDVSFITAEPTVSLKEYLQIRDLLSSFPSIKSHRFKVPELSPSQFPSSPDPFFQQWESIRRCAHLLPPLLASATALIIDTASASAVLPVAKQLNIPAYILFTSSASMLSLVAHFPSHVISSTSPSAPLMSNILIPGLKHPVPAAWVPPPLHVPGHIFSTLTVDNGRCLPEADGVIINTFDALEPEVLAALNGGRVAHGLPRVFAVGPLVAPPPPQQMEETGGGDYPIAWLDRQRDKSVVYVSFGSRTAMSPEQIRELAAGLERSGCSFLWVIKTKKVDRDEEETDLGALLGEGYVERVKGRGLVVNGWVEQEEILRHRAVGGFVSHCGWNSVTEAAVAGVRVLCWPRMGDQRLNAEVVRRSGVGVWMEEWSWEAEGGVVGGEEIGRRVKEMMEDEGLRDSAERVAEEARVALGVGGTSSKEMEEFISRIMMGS

Compound: Oc1cc(O)c(CC2CC2)c(O)c1 [Compound 34]
- conversion rates, Purified Enzyme [1]: 100%
- conversion rates, Whole cells [2]: 11.3% and 11.9% and 15.8%

Compound: CCc1c(O)cc(O)cc1O [Compound 30]
- conversion rates, Purified Enzyme [1]: 100%
- conversion rates, Whole cells [2]: 0%

Compound: COc1ccc(Cc2c(O)cc(O)cc2O)cc1OC [Compound 20]
- conversion rates, O,N,S-glycosylation [1]: 0%
- conversion rates, di-C-glycosylation [1]: 0%
- conversion rates, mono-C-glycosylation [1]: 100%
- inhibition at 10 µM [3]: 0.2%

Compound: COc1ccc(CCc2ccc(O)c([C@@H]3O[C@H](CO)[C@@H](O)[C@H](O)[C@H]3O)c2O)cc1 [Compound 21a]
- inhibition at 10 µM [3]: 22.7%

Compound: OCC1OC(c2c(O)cc(O)c(Cc3ccc(F)cc3)c2O)C(O)C(O)C1O (centres unmarked) [Compound 48a]
- inhibition at 10 µM [3]: 85.4%

Compound: O=C(CCc1ccc(O)cc1)c1c(O)cc(O)c(C2OC(CO)C(O)C(O)C2O)c1O [Compound 17b, phloretin-3′-C-β-D-galactoside]
- inhibition at 10 µM [3]: -3.1%

Compound: COc1ccc(CCc2ccc(O)cc2O)cc1 [Compound 21]
- conversion rates, O,N,S-glycosylation [1]: 0%
- conversion rates, di-C-glycosylation [1]: 0%
- conversion rates, mono-C-glycosylation [1]: 100%
- inhibition at 10 µM [3]: 1.8%

Compound: OCC1OC(c2c(O)cc(O)c(CCc3c[nH]c4ccccc34)c2O)C(O)C(O)C1O (centres unmarked) [Compound 43a]
- inhibition at 10 µM [3]: 20.4%

Compound: O=C(CCc1ccc(O)cc1)c1c(O)cc(O)c(C2OCC(O)C(O)C2O)c1O [Compound 17c, phloretin-3′-C-β-D-xyloside]
- inhibition at 10 µM [3]: 1.7%

Compound: OCC1OC(c2c(O)cc(O)c(CCc3ccc(F)cc3)c2O)C(O)C(O)C1O (centres unmarked) [Compound 53a]
- inhibition at 10 µM [3]: 24.3%

Compound: Oc1cc(O)c(CC2CCCC2)c(O)c1 [Compound 36]
- conversion rates, Purified Enzyme [1]: 100%
- conversion rates, Whole cells [2]: 53.8% and 69.1% and 57.1%

Compound: OCC1OC(c2c(O)cc(O)c(CCc3ccc(Cl)cc3)c2O)C(O)C(O)C1O (centres unmarked) [Compound 54a]
- inhibition at 10 µM [3]: 62.5%

Compound: OCC1OC(c2c(O)cc(O)c(CCc3ccc(O)cc3)c2O)C(O)C(O)C1O (centres unmarked) [Compound 51a]
- inhibition at 10 µM [3]: 18.6%

Compound: OCC1OC(c2c(O)cc(O)c(Cc3ccsc3)c2O)C(O)C(O)C1O (centres unmarked) [Compound 42a]
- inhibition at 10 µM [3]: 68.5%

Compound: CC(=O)c1c(O)cccc1O [Compound 5]
- V183D/yield of C-glycoside(%) ([4]; reaction-1): 8.2%
- V183D/yield of O-glycoside(%) ([4]; reaction-1): 0%
- V183D/yield of C-glycoside(%) ([4]; reaction-2): 7.5%
- V183D/yield of O-glycoside(%) ([4]; reaction-2): 0%
- V183D/yield of C-glycoside(%) ([4]; reaction-3): 7.9%
- V183D/yield of O-glycoside(%) ([4]; reaction-3): 0%
- conversion rates, O,N,S-glycosylation [1]: 72% and 70.6% and 73%
- conversion rates, di-C-glycosylation [1]: 0%
- conversion rates, mono-C-glycosylation [1]: 16.5% and 14.3% and 13.1%
- WT/yield of C-glycoside(%) ([1]; reaction-1): 15.1%
- WT/yield of O-glycoside(%) ([1]; reaction-1): 73.6%
- WT/yield of C-glycoside(%) ([1]; reaction-2): 14.2%
- WT/yield of O-glycoside(%) ([1]; reaction-2): 71%
- WT/yield of C-glycoside(%) ([1]; reaction-3): 14.7%
- WT/yield of O-glycoside(%) ([1]; reaction-3): 72.9%
- V183E/yield of C-glycoside(%) ([5]; reaction-1): 0%
- V183E/yield of O-glycoside(%) ([5]; reaction-1): 0%
- V183E/yield of C-glycoside(%) ([5]; reaction-2): 0%
- V183E/yield of O-glycoside(%) ([5]; reaction-2): 0%
- V183E/yield of C-glycoside(%) ([5]; reaction-3): 0%
- V183E/yield of O-glycoside(%) ([5]; reaction-3): 0%

Compound: OCC1OC(c2c(O)cc(O)c(CCc3ccccc3)c2O)C(O)C(O)C1O (centres unmarked) [Compound 39a]
- inhibition at 10 µM [3]: 23.6%

Compound: COc1ccc(Cc2c(O)cc(O)c([C@@H]3O[C@H](CO)[C@@H](O)[C@H](O)[C@H]3O)c2O)cc1OC [Compound 20a]
- inhibition at 10 µM [3]: 13.6%

Compound: OCC1OC(c2c(O)cc(O)c(CCc3ccc4c(c3)CCO4)c2O)C(O)C(O)C1O (centres unmarked) [Compound 52a]
- inhibition at 10 µM [3]: 36.7%

Compound: O=C(CCc1ccc(O)cc1)c1c(O)c([C@@H]2O[C@H](CO)[C@@H](O)[C@H](O)[C@H]2O)c(O)c([C@@H]2O[C@H](CO)[C@@H](O)[C@H](O)[C@H]2O)c1O [Compound 17aa]
- inhibition at 10 µM [3]: 2.8%

Compound: O=C(CCc1ccc(O)cc1)c1c(O)cc(O)c([C@@H]2O[C@H](CO)[C@@H](O)[C@H](O)[C@H]2O)c1O [Compound 17a]
- inhibition at 10 µM [3]: 52.2%

Compound: OCC1OC(c2c(O)cc(O)c(Cc3ccccc3)c2O)C(O)C(O)C1O (centres unmarked) [Compound 38a]
- inhibition at 10 µM [3]: 76.4%

Compound: COc1cc(O)c(C(C)=O)c(OC)c1 [Compound 14]
- V183D/yield of C-glycoside(%) ([4]; reaction-1): 0%
- V183D/yield of O-glycoside(%) ([4]; reaction-1): 0%
- V183D/yield of C-glycoside(%) ([4]; reaction-2): 0%
- V183D/yield of O-glycoside(%) ([4]; reaction-2): 0%
- V183D/yield of C-glycoside(%) ([4]; reaction-3): 0%
- V183D/yield of O-glycoside(%) ([4]; reaction-3): 0%
- conversion rates, O,N,S-glycosylation [1]: 2% and 1.9%
- conversion rates, di-C-glycosylation [1]: 0%
- conversion rates, mono-C-glycosylation [1]: 0%
- WT/yield of C-glycoside(%) ([1]; reaction-1): 0%
- WT/yield of O-glycoside(%) ([1]; reaction-1): 1.5%
- WT/yield of C-glycoside(%) ([1]; reaction-2): 0%
- WT/yield of O-glycoside(%) ([1]; reaction-2): 1.6%
- WT/yield of C-glycoside(%) ([1]; reaction-3): 0%
- WT/yield of O-glycoside(%) ([1]; reaction-3): 2.8%
- V183E/yield of C-glycoside(%) ([5]; reaction-1): 8%
- V183E/yield of O-glycoside(%) ([5]; reaction-1): 0%
- V183E/yield of C-glycoside(%) ([5]; reaction-2): 7.9%
- V183E/yield of O-glycoside(%) ([5]; reaction-2): 0%
- V183E/yield of C-glycoside(%) ([5]; reaction-3): 7.5%
- V183E/yield of O-glycoside(%) ([5]; reaction-3): 0%
